Where “and” joins values, the source holds several entries; their conditions need not be identical. Identical values can stand only once. Like-named read-outs stand apart in the source and are kept apart here.
How the values were obtained:
human 5-HT6 receptor = molecular target: T1, human 5-HT6 receptor (Homo sapiens, UniProt P50406); experiment: GPCR radioligand binding assay, [3H]-LSD displacement, HEK293 membranes
T1 construct: expressed in transfected cells

bovine factor Xa = molecular target: T2, bovine factor Xa (Bos taurus, UniProt P00743); experiment: Protease inhibitory assay, chromogenic substrate S-2222; type: biochemical; settings: for vinit: replicate values
T2 construct: bovine factor Xa, Chromogenix, 2 nkat/mL; purchased Chromogenix
T2 sequence (P00743 234-492 limits assumed): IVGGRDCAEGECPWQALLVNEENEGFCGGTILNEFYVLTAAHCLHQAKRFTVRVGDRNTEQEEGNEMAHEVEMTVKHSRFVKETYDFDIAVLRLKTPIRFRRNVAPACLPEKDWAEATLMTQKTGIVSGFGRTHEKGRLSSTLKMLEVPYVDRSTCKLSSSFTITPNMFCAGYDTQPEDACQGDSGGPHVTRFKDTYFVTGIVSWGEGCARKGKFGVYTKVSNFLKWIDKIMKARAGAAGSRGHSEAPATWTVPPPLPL
T2 sequence (P00743 41-180 partner limits assumed): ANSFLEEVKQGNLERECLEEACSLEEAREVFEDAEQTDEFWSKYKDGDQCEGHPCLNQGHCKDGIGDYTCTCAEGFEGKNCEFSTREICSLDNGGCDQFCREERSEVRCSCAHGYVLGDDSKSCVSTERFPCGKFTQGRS

human thrombin = molecular target: T3, human thrombin (Homo sapiens, UniProt P00734); experiment: Protease inhibitory assay, chromogenic substrate S-2238; type: biochemical; settings: for vinit: replicate values
T3 construct: human thrombin; purchased Sigma-Aldrich

human 5-HT7b receptor = molecular target: T4, human 5-HT7b receptor (Homo sapiens, UniProt P34969); experiment: GPCR radioligand binding assay, [3H]-5-CT displacement, HEK293 membranes
T4 construct: expressed in transfected cells
T4 sequence (P34969 1-432): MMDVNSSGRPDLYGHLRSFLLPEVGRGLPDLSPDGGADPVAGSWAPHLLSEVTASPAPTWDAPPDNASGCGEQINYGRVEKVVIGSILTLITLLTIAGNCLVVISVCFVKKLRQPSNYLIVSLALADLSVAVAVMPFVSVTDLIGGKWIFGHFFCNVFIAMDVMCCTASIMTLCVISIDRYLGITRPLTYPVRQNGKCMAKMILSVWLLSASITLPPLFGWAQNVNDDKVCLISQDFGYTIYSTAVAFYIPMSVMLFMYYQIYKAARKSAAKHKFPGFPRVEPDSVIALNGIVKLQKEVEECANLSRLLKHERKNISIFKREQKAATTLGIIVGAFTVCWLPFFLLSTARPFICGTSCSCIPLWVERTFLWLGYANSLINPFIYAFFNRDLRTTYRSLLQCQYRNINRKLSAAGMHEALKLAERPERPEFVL

human 5-HT1A receptor = molecular target: T5, human 5-HT1A receptor (Homo sapiens, UniProt P08908); experiment: GPCR radioligand binding assay, [3H]-8-OH-DPAT displacement, HEK293 membranes
T5 construct: expressed in transfected cells
T5 sequence (P08908 1-422): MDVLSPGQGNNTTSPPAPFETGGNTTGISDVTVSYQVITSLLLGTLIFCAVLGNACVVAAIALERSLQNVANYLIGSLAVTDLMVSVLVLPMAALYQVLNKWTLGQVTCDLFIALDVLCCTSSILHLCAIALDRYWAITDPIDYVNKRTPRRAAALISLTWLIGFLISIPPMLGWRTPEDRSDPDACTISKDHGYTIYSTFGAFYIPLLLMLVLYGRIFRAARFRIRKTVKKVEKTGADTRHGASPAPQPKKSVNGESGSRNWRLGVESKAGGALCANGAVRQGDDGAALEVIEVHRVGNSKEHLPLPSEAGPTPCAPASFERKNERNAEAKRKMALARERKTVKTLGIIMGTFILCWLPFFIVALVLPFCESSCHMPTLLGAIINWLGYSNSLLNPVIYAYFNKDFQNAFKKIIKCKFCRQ

[1] = FactorXa Ki determination, substrate 100 µM, cmpd conc 200 µM
[2] = FactorXa Ki determination, substrate 200 µM, cmpd conc 200 µM
[3] = FactorXa primary screening, substrate 100 µM, cmpd conc 200 µM
[4] = FactorXa, substrate 100 µM, cmpd conc 200 µM, one of two values averaged in Supplementary Data 1, read-out: Ki
[5] = FactorXa, substrate 200 µM, cmpd conc 200 µM, one of two values averaged in Supplementary Data 1, read-out: Ki
[6] = Thrombin primary screening, substrate 40 µM, cmpd conc 500 µM
[7] = Thrombin Ki determination, substrate 20 µM, cmpd conc 200 µM
[8] = Thrombin Ki determination, substrate 40 µM, cmpd conc 200 µM

T1 sequence (P50406 whole entry): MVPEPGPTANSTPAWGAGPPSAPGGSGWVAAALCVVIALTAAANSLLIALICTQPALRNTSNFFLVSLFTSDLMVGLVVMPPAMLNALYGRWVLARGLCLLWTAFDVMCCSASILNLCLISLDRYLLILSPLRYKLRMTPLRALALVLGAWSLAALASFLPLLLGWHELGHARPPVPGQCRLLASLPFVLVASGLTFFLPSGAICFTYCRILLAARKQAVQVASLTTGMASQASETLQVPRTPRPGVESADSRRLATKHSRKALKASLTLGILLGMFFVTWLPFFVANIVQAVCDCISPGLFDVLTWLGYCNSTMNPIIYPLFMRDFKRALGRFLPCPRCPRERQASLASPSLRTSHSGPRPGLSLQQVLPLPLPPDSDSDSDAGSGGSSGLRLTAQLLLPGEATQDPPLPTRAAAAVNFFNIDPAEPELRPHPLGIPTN

Compound | V0 / Vi (bovine factor Xa; [3]) | vinit (bovine factor Xa; [3]) | V0 / Vi (human thrombin; [6]) | vinit (human thrombin; [6]) | also measured
CC(=O)c1sc(-c2ccc(O)cc2)nc1C [E1] | – | – | – | – | inhibition at 10 µM (human 5-HT6 receptor; 10 µM, read-out: 5-HT6 % Inhibition by plate position): 65%; inhibition at 10 µM (human 5-HT6 receptor; 5-HT6, average of exp_1 and exp_2, read-out: %inh 5-HT6 average): 65%; inhibition at 10 µM (human 5-HT6 receptor; 5-HT6, average, values below 0 and above 100% were set as 0 and 100, read-out: %inh 5-HT6 corrected*): 65%; inhibition at 10 µM (human 5-HT6 receptor; 5-HT6, replicate exp_1, read-out: %inh 5-HT6 exp_1): 71%; inhibition at 10 µM (human 5-HT6 receptor; 5-HT6, replicate exp_2, read-out: %inh 5-HT6 exp_2): 58%; Ki (bovine factor Xa): 734 µM; Ki (human thrombin; plate layout, label = plate position, Cheng-Prusoff, Km 2.6 µM, read-out: Thrombin Ki): 229 µM; inhibition at 10 µM (human 5-HT7b receptor; 10 µM, read-out: 5-HT7 % Inhibition by plate position): 43%; inhibition at 10 µM (human 5-HT7b receptor; 5-HT7, average of exp_1 and exp_2, read-out: %inh 5-HT7 average): 43%; inhibition at 10 µM (human 5-HT7b receptor; 5-HT7, average, values below 0 and above 100% were set as 0 and 100, read-out: %inh 5-HT7 corrected*): 43%; inhibition at 10 µM (human 5-HT7b receptor; 5-HT7, replicate exp_1, read-out: %inh 5-HT7 exp_1): 36%; inhibition at 10 µM (human 5-HT7b receptor; 5-HT7, replicate exp_2, read-out: %inh 5-HT7 exp_2): 50%; inhibition at 10 µM (human 5-HT1A receptor; 10 µM, read-out: 5-HT1A % Inhibition by plate position): 0%; inhibition at 10 µM (human 5-HT1A receptor; 5-HT1A, average of exp_1 and exp_2, read-out: %inh 5-HT1A average): -8.44%; inhibition at 10 µM (human 5-HT1A receptor; 5-HT1A, average, values below 0 and above 100% were set as 0 and 100, read-out: %inh 5-HT1A corrected*): 0%; inhibition at 10 µM (human 5-HT1A receptor; 5-HT1A, replicate exp_1, read-out: %inh 5-HT1A exp_1): 1.63%; inhibition at 10 µM (human 5-HT1A receptor; 5-HT1A, replicate exp_2, read-out: %inh 5-HT1A exp_2): -19%
COc1ccccc1CC1CCNCC1.Cl [SX-B12] | 1.35 | 10.3 and 11.164 | 0.97 | 32.327 and 32.218 | V0 / Vi (bovine factor Xa; [1]): 1.28; vinit, avrg. (bovine factor Xa; [1]): 12.727; vinit (bovine factor Xa; [1]): 13.1265 and 12.596 and 12.46; V0 / Vi (bovine factor Xa; [2]): 1.25; vinit (bovine factor Xa; [2]): 26.514 and 31.33 and 29.51; Ki (bovine factor Xa; [4]): 445 µM; Ki (bovine factor Xa; [5]): 357 µM
O=C1CC(CSc2ccc(Cl)cc2)=NN1 [SX-H8] | 0.99 | 15.686 and 16.6 | 0.97 | 33.5 and 31.286 | –
O=C(O)CC1CCC(=O)N1 (stereo not shown) [SX-H2] | 1.01 | 17.5 and 16.3 | 1.12 | 30.691 and 28 | –
Nc1ccc(-c2ccccc2)cc1C(=O)O [SX-G9] | 1.04 | 16.3 | 1.08 | 29.309 and 31.745 | –
O=C1CSC(Nc2ccc(F)cc2)=N1 [SX-H10] | 1.14 | 14.6 and 13.3 | 1.13 | 26.786 and 28.857 | –
COc1cccc(NC2=NCCCCC2)c1 [SX-E8] | 0.96 | 18.764 and 18.473 | 0.88 | 35.818 and 34.764 | –
CCc1ccc(NC2=NCCCS2)cc1 [SX-D2] | 1.02 | 16.873 and 17.6 | 0.96 | 30.909 and 30.582 | –
NC(=O)N1CCC(C(=O)O)CC1 [SX-D12] | 1.16 | 11.2 and 13.7 | 1.12 | 28.036 and 28.145 | V0 / Vi (human thrombin; [7]): 1.08; vinit, avrg. (human thrombin; [7]): 24.461; vinit (human thrombin; [7]): 23.803 and 25.267 and 24.313; V0 / Vi (human thrombin; [8]): 1.04; vinit, avrg. (human thrombin; [8]): 32.560; vinit (human thrombin; [8]): 34.041 and 32.608 and 31.031; Ki (human thrombin; Thrombin, substrate 20 µM, cmpd conc 200 µM, one of two values averaged in Supplementary Data 1, read-out: Ki): 273 µM; Ki (human thrombin; Thrombin, substrate 40 µM, cmpd conc 200 µM, one of two values averaged in Supplementary Data 1, read-out: Ki): 329 µM
Oc1ccccc1N1CCCCC1 [SX-A12] | 1.24 | 11.714 and 11.643 | 0.93 | 34.073 and 33.6 | V0 / Vi (bovine factor Xa; [1]): 1.21; vinit, avrg. (bovine factor Xa; [1]): 13.477; vinit (bovine factor Xa; [1]): 13.208 and 13.684 and 13.54; V0 / Vi (bovine factor Xa; [2]): 1.14; vinit (bovine factor Xa; [2]): 30.42 and 30.848 and 34.37; Ki (bovine factor Xa; [4]): 597 µM; Ki (bovine factor Xa; [5]): 625 µM
COC(=O)c1c(C)nc(C2CC2)[nH]c1=O [SX-F1] | 0.96 | 17.6 and 18.945 | 1.06 | 25.964 and 29.418 | –
N#CC1CCS(=O)(=O)C1 (stereo not shown) [SX-F2] | 0.97 | 17.745 and 18.291 | 0.97 | 30.436 and 30.255 | –
Fc1ccc2c(C3CCNCC3)c[nH]c2c1 [SX-H4] | 0.92 | 18 and 18.9 | 0.95 | 34.909 and 34.764 | –
COc1ccc(C2=CCNCC2)cc1 [SX-G1] | 0.93 | 19.4 and 17.2 | 1.03 | 31.055 and 32.691 | –
Oc1ccc(-n2cncn2)cc1 [SX-H5] | 1.05 | 16 and 16.3 | 1.00 | 33.091 and 32.545 | –
Cc1ccc(C)n1Cc1ccccc1Cl [SX-D6] | 0.98 | 17.786 and 17.286 | 1.24 | 26.364 and 21.673 | –
O=c1ccc2c([nH]1)CCCC2 [SX-C5] | 1.05 | 16.714 and 16 | 1.00 | 30.182 and 29.673 | –

Compound | V0 / Vi (bovine factor Xa; [3]) | vinit (bovine factor Xa; [3]) | V0 / Vi (human thrombin; [6]) | vinit (human thrombin; [6]) | also measured
Cn1c(CO)nc2ccccc21 [SX-G2] | 0.96 | 18 and 17.3 | 1.00 | 32.764 and 33.018 | –
c1cnc2ncccc2c1 [SX-A3] | 0.96 | 18.873 and 17.673 | 1.00 | 28.545 and 30.364 | –
CCn1cnc2ccccc21 [SX-D4] | 1.03 | 16.929 and 16.571 | 0.98 | 30.291 | –
N#Cc1ccc(C(=O)N2CCOCC2)cc1 [SX-E10] | 1.00 | 14.2 and 14.8 | 1.00 | 33.091 and 29.782 | –
Cc1cc(C)c2c(=O)[nH]n(C)c2n1 [SX-F12] | 1.09 | 11.4 and 15 | 0.97 | 31.745 and 32.764 | –
O=C1CCN(c2ccccn2)CC1 [SX-G8] | 0.97 | 18.3 and 16.6 | 0.99 | 33.236 | –
CN(C)c1cc(CN)ccn1 [SX-G3] | 0.93 | 17.9 and 18.5 | 0.92 | 35.564 and 35.891 | –
FC1(F)CNCC(F)(F)O1 [SX-H3] | 0.94 | 18.2 and 17.8 | 0.99 | 34.218 and 32.291 | –
Oc1ccc(C2CCNCC2)cc1 [SX-E11] | 0.73 | 18.742 and 20.658 | 1.00 | 31.345 and 31.818 | –
N#CCCN1CCc2ccccc21 [SX-F4] | 1.01 | 16.857 and 17.357 | 1.01 | 31.2 and 28.109 | –
O=C1CCC(=O)N(c2ccccc2)N1 [SX-H7] | 0.97 | 16.4 | 1.06 | 30 and 29.357 | –
C1=C[C@H]2O[C@@H]1c1ccccc12 [SX-C11] | 0.94 | 15.415 and 15.185 | 0.96 | 33.564 and 31.964 | –
O=C(c1ccccc1)N1CCC(CO)CC1 [SX-H9] | 0.93 | 17.7 and 16.5 | 1.03 | 31.714 and 29.571 | –
O=C1NC(=O)/C(=C\c2cccs2)N1 [SX-H12] | 1.27 | 12.7 and 12.5 | 1.13 | 29.929 and 26.071 | vinit, avrg. (bovine factor Xa; [1]): 13.665; vinit (bovine factor Xa; [1]): 13.174 and 12.668 and 15.15; V0 / Vi (bovine factor Xa; [2]): 1.24; vinit, avrg. (bovine factor Xa; [2]): 27.296; vinit (bovine factor Xa; [2]): 25.633 and 28.073 and 28.18; Ki (bovine factor Xa; [4]): 552 µM; Ki (bovine factor Xa; [5]): 380 µM
O=C(O)c1ccc(CN2CCOCC2)cc1 [SX-H1] | 0.98 | 17.6 and 17 | 1.07 | 31.127 and 30.255 | –
CS(=O)(=O)c1ccc(OC(F)(F)F)cc1 [SX-B8] | 0.94 | 20.109 and 18.073 | 0.99 | 31.709 and 31.2 | –
c1ccc2sc(N3CCNCC3)nc2c1 [SX-G5] | 1.01 | 16.1 and 17.4 | 1.04 | 31.164 and 32.073 | –
